Results: the supplement of paper PMC10307832

Assays:
Experiment in all cases: relative viability (nuclei count vs DMSO), 5 days (fraction); higher = more cells survive
[1] = compound: Cc1ccc(C(=O)Nc2ccc(CN3CCN(C)CC3)c(C(F)(F)F)c2)cc1C#Cc1cnc2cccnn12 [Ponatinib] + COc1cc2c(Oc3ccc(NC(=O)C4(C(=O)Nc5ccc(F)cc5)CC4)cc3F)ccnc2cc1OCCCN1CCOCC1 [Foretinib] (partner 0.25 µM)
In short: (§1)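 Lung cancer cell lines were pin-tool dosed in 1536-well plates on the day after seeding, with either a lone drug or a fixed anchor-drug dose plus five library-drug doses (not always all listed) in √10 steps. Nuclei were counted on 4× images after 5 days. Relative viability is the ratio of treated-well to vehicle-well nuclei counts, with each value a median of duplicate plates.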

[2] = compound: Cc1ccc(C(=O)Nc2ccc(CN3CCN(C)CC3)c(C(F)(F)F)c2)cc1C#Cc1cnc2cccnn12 [Ponatinib] + CS(=O)(=O)N1CCN(Cc2cc3nc(-c4cccc5[nH]ncc45)nc(N4CCOCC4)c3s2)CC1 [Pictilisib] (partner 1 µM)
In short: as §1

[3] = compound: Cc1ccc(Nc2nccc(N(C)c3ccc4c(C)n(C)nc4c3)n2)cc1S(N)(=O)=O [Pazopanib] + Cc1cc(Nc2cc(N3CCN(C)CC3)nc(Sc3ccc(NC(=O)C4CC4)cc3)n2)n[nH]1 [Tozasertib] (partner 0.1 µM)
In short: as §1

[4] = compound: Cc1ccc(Nc2nccc(N(C)c3ccc4c(C)n(C)nc4c3)n2)cc1S(N)(=O)=O [Pazopanib] + O=C(c1cc(Cc2n[nH]c(=O)c3ccccc23)ccc1F)N1CCN(C(=O)C2CC2)CC1 [Olaparib] (partner 8 µM)
In short: as §1

Row | Cell Line | relative viability ([1]; first compound 0.002 µM) | relative viability ([1]; first compound 0.006325 µM) | relative viability ([1]; first compound 0.06325 µM) | relative viability ([1]; first compound 0.2 µM) | relative viability ([2]; first compound 0.002 µM) | relative viability ([2]; first compound 0.006325 µM) | relative viability ([2]; first compound 0.06325 µM) | relative viability ([2]; first compound 0.2 µM) | relative viability ([3]; first compound 0.01 µM) | relative viability ([3]; first compound 0.03162 µM) | relative viability ([3]; first compound 0.1 µM) | relative viability ([3]; first compound 0.3162 µM) | relative viability ([3]; first compound 1 µM) | relative viability ([4]; first compound 0.01 µM) | relative viability ([4]; first compound 0.03162 µM) | relative viability ([4]; first compound 0.1 µM) | relative viability ([4]; first compound 0.3162 µM) | relative viability ([4]; first compound 1 µM)
1 | NCI-H2126 | 1.12 | 1.29 | 1.34 | 1.07 | 0.513 | 0.504 | 0.587 | 0.617 | 0.805 | 0.828 | 0.877 | 0.86 | 0.842 | 0.825 | 0.908 | 0.988 | 0.946 | 0.887
2 | NCI-H322M | 0.956 | 0.976 | 1.02 | 0.814 | 0.523 | 0.522 | 0.53 | 0.536 | 0.536 | 0.518 | 0.547 | 0.448 | 0.476 | 0.885 | 0.817 | 0.881 | 0.71 | 0.71
3 | NCI-H1975 | 0.911 | 0.955 | 1.03 | 1.01 | 0.311 | 0.309 | 0.408 | 0.353 | 0.665 | 0.693 | 0.854 | 0.742 | 0.581 | 0.76 | 0.829 | 0.775 | 0.785 | 0.756
4 | NCI-H2170 | 0.953 | 0.898 | 0.966 | 0.927 | 0.325 | 0.322 | 0.351 | 0.354 | 0.772 | 0.724 | 0.73 | 0.67 | 0.674 | 0.669 | 0.561 | 0.693 | 0.547 | 0.56
5 | LU99A | 0.781 | 0.928 | 0.876 | 0.774 | 0.303 | 0.335 | 0.369 | 0.329 | 0.272 | 0.3 | 0.277 | 0.262 | 0.233 |  | 0.243 | 0.313 | 0.275 | 0.267
6 | NCI-H2405 | 1 | 1.06 | 1.04 | 0.935 | 0.388 | 0.574 | 0.497 | 0.403 | 0.77 | 0.777 | 0.79 | 0.75 | 0.76 | 0.824 | 0.89 | 0.958 | 0.907 | 0.983
7 | NCI-H2009 | 1.18 | 1.2 | 1.22 | 1.17 | 0.755 | 0.838 | 0.794 | 0.625 | 0.787 | 0.738 | 0.613 | 0.801 | 0.51 | 0.746 | 0.699 | 0.686 | 0.677 | 0.456
8 | HCC-15 | 0.974 | 0.928 | 1.13 | 1.01 | 0.644 | 0.758 | 0.823 | 0.701 | 0.435 | 0.502 | 0.411 | 0.394 | 0.37 | 0.689 | 0.671 | 0.697 | 0.723 | 0.672
9 | HCC-44 |  |  |  |  | 0.69 | 0.65 | 0.73 | 0.628 | 0.872 | 0.913 | 0.926 | 0.843 | 0.78 | 0.991 | 0.995 | 1.02 | 0.995 | 1
